Each structure is given as a SMILES string. Numbers after ± are expanded uncertainties.

This passage reports mass density and refractive index results from the NIST ThermoML archive (doi:10.1016/j.jct.2010.01.008).

For data set [1] the following is noted: 298.15 K; 101.33 kPa; Liquid; Vibrating tube method.
Data set [2] is described as follows: refractive index (Na D-line) (dimensionless). The note with it: 298.15 K; 101.33 kPa; Liquid; Automatic Refractometer.
Data set [3] can be described thus: xn = mol fraction of the nth substance listed. The conditions noted are these: 298.15 K, 101.3 kPa, Liquid, Vibrating tube method.

Consider `CCOS(=O)(=O)[O-].CC[n+]1cccc(C)c1` [1-ethyl-3-methylpyridinium ethylsulfate], for which the mass density in data set [1] is 1219.61 ± 0.42 kg/m3. Besides, the refractive index in data set [2] came out at 1.50591 ± 0.00022.

Turning to `Cc1ccccc1` [toluene] + CCCCCCC, the mass density was found to be 862.17 ± 0.14 kg/m3 in data set [3] (x2 = 0); 838.12 ± 0.28 kg/m3 in data set [3] (x2 = 0.0974); 814.81 ± 0.27 kg/m3 in data set [3] (x2 = 0.1996); 793.52 ± 0.26 kg/m3 in data set [3] (x2 = 0.2997); 774.31 ± 0.25 kg/m3 in data set [3] (x2 = 0.397); 755.94 ± 0.24 kg/m3 in data set [3] (x2 = 0.497). Besides, the mass density in data set [3] (x2 = 0.5961) amounted to 738.9 ± 0.24 kg/m3; in data set [3] (x2 = 0.6967) it was 722.76 ± 0.24 kg/m3; in data set [3] (x2 = 0.7958), 707.78 ± 0.24 kg/m3; in data set [3] (x2 = 0.8973), 693.24 ± 0.23 kg/m3.

On to `CCCCCCC` [heptane] + Cc1ccccc1, for which the mass density in data set [3] (x1 = 1) was determined as 679.56 ± 0.2 kg/m3.

On to `CCCCCCCCC` [nonane] + Cc1ccccc1, for which the mass density in data set [3] (x1 = 0.096) was determined as 838.74 ± 0.27 kg/m3; in data set [3] (x1 = 0.1942), 817.91 ± 0.25 kg/m3; in data set [3] (x1 = 0.2952) it was 799.09 ± 0.24 kg/m3; in data set [3] (x1 = 0.3954), 782.63 ± 0.23 kg/m3; in data set [3] (x1 = 0.4954) it was 768.02 ± 0.23 kg/m3; in data set [3] (x1 = 0.5929) it was 755.35 ± 0.23 kg/m3. Besides, the mass density is 743.54 ± 0.24 kg/m3 in data set [3] (x1 = 0.6939), 732.97 ± 0.25 kg/m3 in data set [3] (x1 = 0.7939), 723.28 ± 0.26 kg/m3 in data set [3] (x1 = 0.8947) and 713.99 ± 0.26 kg/m3 in data set [3] (x1 = 1).

In the case of `Cc1ccccc1` [toluene] + CCCCCCCCC, the mass density in data set [3] (x2 = 0) came out at 862.17 ± 0.14 kg/m3.

As for `Cc1ccccc1` [toluene] + CCCCCCCC, the mass density in data set [3] (x2 = 0) is reported as 862.17 ± 0.14 kg/m3.

On to `CCCCCCCC` [octane] + Cc1ccccc1, for which the mass density in data set [3] (x1 = 0.0982) was found to be 838.13 ± 0.27 kg/m3; in data set [3] (x1 = 0.1977) it was 816.31 ± 0.26 kg/m3; in data set [3] (x1 = 0.2975), 796.62 ± 0.24 kg/m3; in data set [3] (x1 = 0.3983), 778.64 ± 0.23 kg/m3; in data set [3] (x1 = 0.5005) it was 761.92 ± 0.23 kg/m3; in data set [3] (x1 = 0.5988) it was 747.35 ± 0.22 kg/m3. Also, the mass density in data set [3] (x1 = 0.699) turned out to be 733.63 ± 0.22 kg/m3; in data set [3] (x1 = 0.7966) it was 721.31 ± 0.22 kg/m3; in data set [3] (x1 = 0.8955) it was 709.92 ± 0.22 kg/m3; in data set [3] (x1 = 1), 698.6 ± 0.19 kg/m3.

A word on the mass density: it is mass per unit of volume. As usually defined, the refractive index is the speed of light in vacuum divided by its phase velocity in the sample.
